Literature values in patent publication US20250288604A1, “SUGAR-CONJUGATED LIPID NANOPARTICLES FOR TARGETED DELIVERY OF SIRNA TO HEPATOCYTES” (University of Virginia Patent Foundation, priority 2022, published 2025).

Conditions: single ionizable lipid

In order of rising pKa:
1. CCCCCCCCC(CCCCCC)C(=O)OCCCCCCN(CCCCO)CCCCCCOC(=O)C(CCCCCC)CCCCCCCC (stereo not drawn) [ALC-0315]  6.09
2. CCCCC/C=C\C/C=C\CCCCCCCCC(CCCCCCCC/C=C\C/C=C\CCCCC)OC(=O)CCCN(C)C [DLinMc3DMA, (6Z,9Z,28Z,31Z)-Heptatriaconta-6,9,28,31-tetraen-19-yl 4-(dimethylamino) butanoate]  6.44
3. CCCCCCCCCCCOC(=O)CCCCCN(CCO)CCCCCCCC(=O)OC(CCCCCCCC)CCCCCCCC [SM-102]  6.75
